The nature of data set [1]: Stability of crystalline form P1 at 25° C./60% RH and 40° C./75% RH for 3 months (closed conditions). The format is physicochemical.
The nature of data set [2]: Stability of crystalline form P1 under 80% RH (open condition) and illumination (300-400 nm). The class given is physicochemical.

SMILES strings stand for the structures.

Consider `COc1ccc(F)cc1C(=O)NCc1ccc(-c2nn([C@@H](C)C(F)(F)F)c(N)c2C(N)=O)cc1` [Crystalline form P1 of Pirtobrutinib, (S)-5-amino-3-(4-((5-fluoro-2-methoxybenzamido)methyl)phenyl)-1-(1,1,1-trifluoropropan-2-yl)-1H-pyrazole-4-carboxamide], for which the Purity in data set [1] (0 Day) is reported as 98.9%; in data set [1] (25° C./60% RH (Closed Condition) (3 months)), 98.7%; in data set [1] (40° C./75% RH (Closed Condition) (3 months)), 98.9%; in data set [2] (0 Day), 98.9%; in data set [2] (Exposure at 80% RH for 1 day (Open Condition)), 98.9%; in data set [2] (Illumination (300-400 nm) for 24 hours), 98.9%. Also, the Stability entry was “stable” in data set [1] (3 months at accelerated conditions); “stable” in data set [1] (40° C./75% RH for 3 months under closed conditions); “stable” in data set [2] (high humidity and illumination conditions). The “Physical and chemical stability” value in data set [1] (25° C./60% RH for 3 months under closed conditions) was “physically and chemically stable”; in data set [2] (kept at 80% RH in open condition), “physically and chemically stable”; in data set [2] (kept under illumination (300-400 nm) for 24 hours) it was “physically and chemically stable”.

Values taken from patent publication US20260272883A1, “SOLID STATE FORMS OF PIRTOBRUTINIB AND PROCESS FOR THE PREPARATION OF INTERMEDIATE THEREOF” (DR. REDDY'S LABORATORIES LIMITED, priority 2023, published 2026).
